Assay results from patent US9181239B2, “Pyridopyrimidinone inhibitors of kinases” (AbbVie Inc., priority 2011, dated 2015).

molecular target: T1, Wee1 kinase (Homo sapiens, UniProt P30291); assay: Wee1 time-resolved fluorescence equilibrium binding assay (probe displacement); conditions: GST-tagged-Wee1 kinase 2 nM, fluorescent probe 300 nM, 1 hour incubation; read-out: Wee-1 binding (Ki nM)
T1 construct: purchased Carnabio 05-177
Description: Wee1 kinase was assayed using a time-resolved fluorescence equilibrium binding assay monitoring displacement of a rapidly reversible Oregon Green-labeled ATP-competitive kinase probe (N-(2-(2-(2-(4-(4-(5-chloro-4-(2-(1-hydroxycyclobutyl)thiazol-5-yl)-1H-pyrrolo[2,3-b]pyridin-2-yl)phenyl)piperazin-1-yl)ethoxy)ethoxy)ethyl)-2′,7′-difluoro-3′,6′-dihydroxy-3-oxo-3H-spiro[isobenzofuran-1,9′-xanthene]-5-carboxamide) by competitive Wee1 inhibitors.

T1 sequence (P30291 whole entry): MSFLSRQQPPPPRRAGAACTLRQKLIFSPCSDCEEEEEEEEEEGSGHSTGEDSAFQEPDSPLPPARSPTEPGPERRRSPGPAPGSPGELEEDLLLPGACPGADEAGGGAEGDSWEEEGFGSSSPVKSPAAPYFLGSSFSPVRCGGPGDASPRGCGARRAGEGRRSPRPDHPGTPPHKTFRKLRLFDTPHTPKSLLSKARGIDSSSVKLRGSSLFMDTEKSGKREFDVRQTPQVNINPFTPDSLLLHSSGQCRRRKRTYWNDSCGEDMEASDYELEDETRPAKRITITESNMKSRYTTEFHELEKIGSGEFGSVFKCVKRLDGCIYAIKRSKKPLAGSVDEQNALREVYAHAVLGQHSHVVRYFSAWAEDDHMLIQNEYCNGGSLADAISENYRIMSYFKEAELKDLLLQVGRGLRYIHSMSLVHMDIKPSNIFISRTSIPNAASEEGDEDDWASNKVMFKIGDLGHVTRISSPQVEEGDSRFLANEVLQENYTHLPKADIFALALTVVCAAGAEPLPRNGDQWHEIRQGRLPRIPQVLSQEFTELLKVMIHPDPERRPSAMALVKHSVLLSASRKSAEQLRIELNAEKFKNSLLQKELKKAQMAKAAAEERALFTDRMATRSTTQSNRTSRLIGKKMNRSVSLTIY

SMILES	Ki [nM]
CN1CCN(c2ccc(Nc3ncc4c(=O)c(-c5c(Cl)cccc5Cl)c5n(c4n3)CCC5)cc2)CC1 [Example 6, 6-(2,6-dichlorophenyl)-2-{[4-(4-methylpiperazin-1-yl)phenyl]amino}-8,9-dihydropyrimido[4,5-e]indolizin-5(7H)-one]	5.7
CN1CCN(c2ccc(Nc3ncc4c(=O)c(-c5ccccc5Cl)cn(C)c4n3)cc2)CC1 [Example 5, 6-(2-chlorophenyl)-8-methyl-2-{[4-(4-methylpiperazin-1-yl)phenyl]amino}pyrido[2,3-d]pyrimidin-5(8H)-one]	3.7
COc1ccc(Cn2cc(-c3c(F)cccc3Cl)c(=O)c3cnc(Nc4ccc(N5CCN(C)CC5)cc4)nc32)cc1 [Example 35, 6-(2-chloro-6-fluorophenyl)-8-(4-methoxybenzyl)-2-{[4-(4-methylpiperazin-1-yl)phenyl]amino}pyrido[2,3-d]pyrimidin-5(8H)-one]	66
CN(C)CCn1cc(-c2c(Cl)cccc2Cl)c(=O)c2cnc(Nc3ccc(N4CCN(C)CC4)cc3)nc21 [Example 13, 6-(2,6-dichlorophenyl)-8-[2-(dimethylamino)ethyl]-2-{[4-(4-methylpiperazin-1-yl)phenyl]amino}pyrido[2,3-d]pyrimidin-5(8H)-one]	24
CN1CCN(c2ccc(Nc3ncc4c(=O)c(-c5c(F)cccc5Cl)cn(C)c4n3)cc2)CC1 [Example 33, 6-(2-chloro-6-fluorophenyl)-8-methyl-2-{[4-(4-methylpiperazin-1-yl)phenyl]amino}pyrido[2,3-d]pyrimidin-5(8H)-one]	1.5
CN1Cc2cc(Nc3ncc4c(=O)c(-c5c(F)cccc5Cl)cn(C5CC5)c4n3)ccc2C2(CC2)C1 [Example 38, 6-(2-chloro-6-fluorophenyl)-8-cyclopropyl-2-[(2′-methyl-2′,3′-dihydro-1′H-spiro[cyclopropane-1,4′-isoquinolin]-7′-yl)amino]pyrido[2,3-d]pyrimidin-5(8H)-one]	1.3
CN1CCN(c2ncc(Nc3ncc4c(=O)c(-c5c(Cl)cccc5Cl)cn(C)c4n3)cn2)CC1 [Example 59, 6-(2,6-dichlorophenyl)-8-methyl-2-{[2-(4-methylpiperazin-1-yl)pyrimidin-5-yl]amino}pyrido[2,3-d]pyrimidin-5(8H)-one]	18
CN1CCC(Nc2ccc(Nc3ncc4c(=O)c(-c5c(F)cccc5Cl)cn(C)c4n3)cc2)CC1 [Example 69, 6-(2-chloro-6-fluorophenyl)-8-methyl-2-({4-[(1-methylpiperidin-4-yl)amino]phenyl}amino)pyrido[2,3-d]pyrimidin-5(8H)-one]	3
CN(C)C1CCN(c2ncc(Nc3ncc4c(=O)c(-c5c(Cl)cccc5Cl)cn(C)c4n3)cn2)CC1 [Example 62, 6-(2,6-dichlorophenyl)-2-({2-[4-(dimethylamino)piperidin-1-yl]pyrimidin-5-yl}amino)-8-methylpyrido[2,3-d]pyrimidin-5(8H)-one]	3
COc1ccc(Cn2cc(-c3c(Cl)cccc3Cl)c(=O)c3cnc(Nc4ccc5c(c4)CN(C)CC54CC4)nc32)cc1 [Example 29, 6-(2,6-dichlorophenyl)-8-(4-methoxybenzyl)-2-[(2′-methyl-2′,3′-dihydro-1′H-spiro[cyclopropane-1,4′-isoquinolin]-7′-yl)amino]pyrido[2,3-d]pyrimidin-5(8H)-one]	6.4

The next compounds have a lower Ki than those just listed; values first:

Ki [nM]	SMILES
0.5	CN(C)C1CCN(c2ccc(Nc3ncc4c(=O)c(-c5c(Cl)cccc5Cl)cn(C)c4n3)cc2)CC1 [Example 44, 6-(2,6-dichlorophenyl)-2-({4-[4-(dimethylamino)piperidin-1-yl]phenyl}amino)-8-methylpyrido[2,3-d]pyrimidin-5(8H)-one]
0.4	CN1Cc2cc(Nc3ncc4c(=O)c(-c5c(F)cccc5Cl)cn(C)c4n3)ccc2C2(CC2)C1 [Example 34, 6-(2-chloro-6-fluorophenyl)-8-methyl-2-[(2′-methyl-2′,3′-dihydro-1′H-spiro[cyclopropane-1,4′-isoquinolin]-7′-yl)amino]pyrido[2,3-d]pyrimidin-5(8H)-one]
1.2	CC(C)n1cc(-c2c(Cl)cccc2Cl)c(=O)c2cnc(Nc3ccc(N4CCN(C)CC4)cc3)nc21 [Example 26, 6-(2,6-dichlorophenyl)-2-{[4-(4-methylpiperazin-1-yl)phenyl]amino}-8-(propan-2-yl)pyrido[2,3-d]pyrimidin-5(8H)-one]
0.4	Cn1cc(-c2c(Cl)cccc2Cl)c(=O)c2cnc(Nc3ccc(N[C@H]4CCNC4)cc3)nc21 [Example 64, 6-(2,6-dichlorophenyl)-8-methyl-2-({4-[(3S)-pyrrolidin-3-ylamino]phenyl}amino)pyrido[2,3-d]pyrimidin-5(8H)-one]
0.5	CN1CCC(Nc2ccc(Nc3ncc4c(=O)c(-c5c(Cl)cccc5Cl)cn(C)c4n3)cc2)C1 (stereo not drawn) [Example 67, 6-(2,6-dichlorophenyl)-8-methyl-2-({4-[(1-methylpyrrolidin-3-yl)amino]phenyl}amino)pyrido[2,3-d]pyrimidin-5(8H)-one]
1.1	Cn1cc(-c2c(Cl)cccc2Cl)c(=O)c2cnc(Nc3ccc4c(c3)CCNC4)nc21 [Example 46, 6-(2,6-dichlorophenyl)-8-methyl-2-(1,2,3,4-tetrahydroisoquinolin-6-ylamino)pyrido[2,3-d]pyrimidin-5(8H)-one]
0.3	CN1CCN(c2ccc(Nc3ncc4c(=O)c(-c5c(Cl)cccc5Cl)c[nH]c4n3)cc2)CC1 [Example 18, 6-(2,6-dichlorophenyl)-2-{[4-(4-methylpiperazin-1-yl)phenyl]amino}pyrido[2,3-d]pyrimidin-5(8H)-one]
0.1	CN1CCN(c2ccc(Nc3ncc4c(=O)c(-c5c(Cl)cccc5Cl)cn(-c5ccccc5)c4n3)cc2)CC1 [Example 4, 6-(2,6-dichlorophenyl)-2-{[4-(4-methylpiperazin-1-yl)phenyl]amino}-8-phenylpyrido[2,3-d]pyrimidin-5(8H)-one]
0.7	CN1Cc2cc(Nc3ncc4c(=O)c(-c5c(F)cccc5Cl)c[nH]c4n3)ccc2C2(CC2)C1 [Example 39, 6-(2-chloro-6-fluorophenyl)-2-[(2′-methyl-2′,3′-dihydro-1′H-spiro[cyclopropane-1,4′-isoquinolin]-7′-yl)amino]pyrido[2,3-d]pyrimidin-5(8H)-one]
0.2	CN1Cc2cc(Nc3ncc4c(=O)c(-c5c(Cl)cccc5Cl)c[nH]c4n3)ccc2C2(CC2)C1 [Example 30, 6-(2,6-dichlorophenyl)-2-[(2′-methyl-2′,3′-dihydro-1′H-spiro[cyclopropane-1,4′-isoquinolin]-7′-yl)amino]pyrido[2,3-d]pyrimidin-5(8H)-one]
0.9	CN1CCC(c2ccc(Nc3ncc4c(=O)c(-c5c(Cl)cccc5Cl)cn(C)c4n3)cc2)CC1 [Example 50, 6-(2,6-dichlorophenyl)-8-methyl-2-{[4-(1-methylpiperidin-4-yl)phenyl]amino}pyrido[2,3-d]pyrimidin-5(8H)-one]
0.3	CN1CCN(c2ccc(Nc3ncc4c(=O)c(-c5c(Cl)cccc5Cl)cn(C)c4n3)cc2)CC1 [Example 8, 6-(2,6-dichlorophenyl)-8-methyl-2-{[4-(4-methylpiperazin-1-yl)phenyl]amino}pyrido[2,3-d]pyrimidin-5(8H)-one]
1.2	CN(C)CCCN1CCN(c2ccc(Nc3ncc4c(=O)c(-c5c(Cl)cccc5Cl)cn(C)c4n3)cc2)CC1 [Example 78, 6-(2,6-dichlorophenyl)-2-[(4-{4-[3-(dimethylamino)propyl]piperazin-1-yl}phenyl)amino]-8-methylpyrido[2,3-d]pyrimidin-5(8H)-one]
0.3	Cn1cc(-c2c(Cl)cccc2Cl)c(=O)c2cnc(Nc3ccc4c(c3)CNC4(C)C)nc21 [Example 65, 6-(2,6-dichlorophenyl)-2-[(1,1-dimethyl-2,3-dihydro-1H-isoindol-5-yl)amino]-8-methylpyrido[2,3-d]pyrimidin-5(8H)-one]
